Legend:
[1] = assay type: physicochemical
Protocol: 20 ml 1,2-propylene glycol, 15 ml Tween-80 and 5 ml azone were mixed together and sterile distilled water was added to bring the volume to 100 ml. The pH value of the solution was adjusted to pH 6.8 with NaOH or HCl to obtain a micro emulsion. 10 g propyl gallate and 10 g gallic acid were dissolved in the micro emulsion, respectively, and mixed well. 10 ml of each micro emulsion was added to a capped transparent glass tube. Both solutions were colorless. The absorbance of the two solutions at 400˜500 nm was measured with spectrophotometry and their absorbance was under 0.15. […] Measured by spectrophotometry again, the absorbance of the gallic acid solution was 1.2 and that of the propyl gallate solution was 0.4.

HPV 6/11 = assay: Drug screening by quantitative fluorescent PCR analysis of HPV 6/11 in condyloma acuminata homogenate; design: species or system human papillomavirus (HPV)
[2] = tested on: secretion of HBsAg by 2.2.15 cells; assay: Inhibition of secretion of HBsAg by Hepatitis B 2.2.15 cell line; assay type: cell-based, HBV; details: 1 μmol/ml
From the text: Hepatitis B 2.2.15 cell line was transfected by HBV DNA (purchased from Institute of Biochemistry and Cell Biology of Shanghai Institute for Biological Sciences or the National Center for Drug Screening) and used as the cell model for screening anti-HBV drug compounds (See Chinese Journal Of Integrated Traditional and Western Medicine on Liver Diseases, 2004, 14(3): 158). The cell culture medium DMEM (GIBCO Company), bovine serum (Hangzhou Siji Qing Biochemical Manufacturer), G418 (GIBCO Company), 3-(4,5-dimethylthiazol-2-yl)-2,5-diphenyltetrazoliumbromide (Sigma), HBsAg and HBeAg diagnostic kit (Shanghai Kehua Bio-engineering Co., Ltd).
The test compounds listed in Table 3 below were dissolved in a mixture containing 20 ml 1,2-propylene glycol and 15 ml Tween-80 and diluted with sterile saline water to 2 μmol/ml of the test compound. Then it was mixed with the cell culture medium at equal volume to obtain a solution containing 1 μmol/ml of the tested compound. Cells at the concentration of 1×10^5 cells per milliliter were inoculated to a 24-well plate at 1 ml/well. Supernatant from the cell culture mixture was collected three days later for testing.

HSV infection = assay: External treatment of HSV infection in clinical tests; assay type: in vivo, human; details: patients with HSV infection
From the text: Twenty-two patients who were clinically diagnosed with HSV infection were randomly selected and divided into two groups. Acyclovir ointment and micro emulsion containing propyl gallate prepared as described in Example 1 were applied to the two groups, respectively, on the affected areas of the patients three times a day.

cervical erosion = assay: Clinical use of propyl gallate in treating cervical erosion; assay type: in vivo, human; details: for total effectiveness rate: recovered or improved
Protocol: 4 g propyl gallate was mixed with 40 ml 1,2-propylene glycol and heated to let the ingredients to dissolve. Sterile distilled water was added to the mixture to reach a final volume of 100 ml. 28 married female patients of 22-50 years old were selected for the test. […] The patients were also tested for the absence of vaginal yeast infection or trichomoniasis or sexually transmitted diseases. The patients were randomly divided into two groups of 14 patients each. One group was treated with propyl gallate micro emulsion, the other group with interferon-α suppository (made by Wuhan Tian'ao Pharmaceutical Co.). The treatment was started three days after a patient's last menstrual period. The propyl gallate micro emulsion was applied to the mucosa surfaces with cervical erosion every other day for 30 days. Out of the group treated with propyl gallate, 7 patients had the medicine applied to them by medical professionals at a hospital, the other 7 patients applied the medicine by themselves at home. On the other hand, an interferon-α suppository was used by each patient in the control group once a day before sleep for 30 days. “Recovered”: the cervical skin became smooth, cervical erosion had disappeared; […] The effectiveness of treatment was calculated based on the number of patients that were “recovered” or “improved”. Among patients of the propyl gallate group who were treated at the hospital, the “recovered” rate was about 81%, the “improved” rate was about 15%, and the total effectiveness rate was about 96%. Among patients of the propyl gallate group who were treated at home, the “recovered” rate was about 32%, the “improved” rate was about 55%, and the total effectiveness rate was about 87%. Among patients treated with interferon-α suppository, the “recovered” rate was about 22%, the “improved” rate was about 57%, and the total effectiveness rate was about 79%.

HPV 16/18 = assay: Drug screening by quantitative fluorescent PCR analysis of HPV 16/18 in condyloma acuminata homogenate; design: species or system human papillomavirus (HPV)
flat warts = assay: Clinical use in treating flat warts; assay type: in vivo, human
Protocol: 5 g propyl gallate was mixed with 40 ml 1,2-propylene glycol and heated to dissolve the ingredients. Then 20 ml Tween-80 and 3 ml azone were added into the mixture and mixed well. Sterile distilled water was added to the mixture to reach a final volume of 100 ml.
Clinically, flat warts were seen as slightly raised, smooth, tan or flesh colored bumps ranging in size from 1-5 mm. They typically appeared on the face, backs of hands and arms.
32 male and 28 female patients of 15-46 years old, with the average age of 23 years old, were selected for the test. These patients have had flat warts for any time from 2 weeks to 2 years. Some of the patients have tried other treatment methods for the warts. But no one had undertaken any treatment for the warts in the past 4 weeks. And no one had taken any medicine in the past 2 weeks.
The patients were randomly divided into two groups of 30 patients each. One group was treated with propyl gallate micro emulsion, the other group with 5% imiquimod cream (made by Sichuan Ming Xin Pharmaceutical Co.), which is a medicine often used for treating flat warts. The test samples were applied to the affected areas of the patient groups three times a day, in the morning, at noon and night. The treatment period was 20 days. The treatment effect was tracked for one year.
“Recovered”: all warts had disappeared or faded, the skin became flat, no new warts appeared;
“Obvious Effect”: more than 70% of the warts had disappeared, the bottom of the warts had shrunk, the top of the warts had flattened;
“Improved”: more than 30% of the warts had disappeared, the top of the warts had flattened;
“Not Effective”: less than 30% of the warts had disappeared, no change to the warts, or some new warts appeared.

[3] = 24 hours after adding the test compound
[4] = patients treated at home (7), every other day for 30 days
[5] = number of patients of 30 per group, three times a day, 20 days

CCCOC(=O)c1cc(O)c(O)c(O)c1 [Propyl gallate]
colour of solution, initial ([1]; micro emulsion pH 6.8, freshly prepared): colorless
absorbance after 30 days ([1]; micro emulsion pH 6.8, kept at room temperature for 30 days, 400˜500 nm): 0.4
colour of solution after 30 days ([1]; micro emulsion pH 6.8, room temperature for 30 days): remained colorless
HPV 6/11 Virus (copies/ml) (HPV 6/11; 50 μl 10% micro emulsion + 50 μl HPV sample homogenate, 37° C., 24 hours, saline control 1.45 × 10^6): 0 copies/ml
HPV 6/11 detected by FQ-PCR (in words) (HPV 6/11; [3]): no HPV 6/11 or HPV 16/18 was detected
effect on the secretion of HBsAg by the 2.2.15 cells (in words) [2]: had inhibition effect
inhibition of HBsAg secretion compared with gallic acid and 3,4-dihydroxybenzoic acid [2]: more effective
HBsAg Inhibition rate ([2]; 2.2.15 cells, supernatant collected three days later): 18.83%
effectiveness in treating HSV infection compared with acyclovir ointment (HSV infection): more effective
average time for recovery (HSV infection; applied on affected areas three times a day): 3 days
“improved” rate (cervical erosion; [4]): about 55%
“recovered” rate (cervical erosion; [4]): about 32%
total effectiveness rate (cervical erosion; patients treated at home (7)): about 87%
“recovered” rate (cervical erosion; patients treated at the hospital (7), 4% micro emulsion every other day for 30 days): about 81%
“improved” rate (cervical erosion; patients treated at the hospital (7), every other day for 30 days): about 15%
total effectiveness rate (cervical erosion; patients treated at the hospital (7)): about 96%
effectiveness compared with interferon-α suppository (cervical erosion; patients treated at the hospital, P<0.05): significantly better
HPV 16/18 Virus (copies/ml) (HPV 16/18; 50 μl 10% micro emulsion + 50 μl HPV sample homogenate, 37° C., 24 hours, saline control 1.40 × 10^5): 0 copies/ml
HPV 16/18 detected by FQ-PCR (in words) (HPV 16/18; [3]): no HPV 6/11 or HPV 16/18 was detected
effectiveness in treating flat warts compared with 5% imiquimod cream (flat warts; 20 days treatment): more effective
recurrence of the warts in recovered patients (flat warts; followed for a year): none had recurrence
Recovered (flat warts; number of patients of 30 per group, applied three times a day, 20 days): 22
Improved (flat warts; [5]): 2
Not Effective (flat warts; [5]): 1
Obvious Effect (flat warts; [5]): 5
Effective Rate (flat warts; patients recovered or with obvious effect, of 30 per group): 90%

Reference: patent US8044098B2, “Use of hydroxybenzoic acids and their esters and analogues for preventing or treating virus infection” (Shenghua Guangzhou Pharmaceutical Science & Technology Co., …, priority 2005, dated 2011)
